# Results published in ChEMBL document CHEMBL4725370, “Discovery of Proteolysis-Targeting Chimera Molecules that Selectively Degrade the IRAK3 Pseudokinase” (J Med Chem, 2020).
# Experiments:
# [1] = Octanol/buffer partition coefficient, log D of the compound at pH 7.4 by shake-flask method; format: physicochemical
# [2] = biological target: T1, von Hippel-Lindau disease tumor suppressor/Interleukin-1 receptor-associated kinase 3 (Homo sapiens) (UniProt Q9Y616+P40337); experiment: Protac activity at VHL/IRAK3 in LPS-induced human THP1 cells assessed as induction of IRAK3 degradation at 1 uM by Western blot analysis relative to control; format: cell-based; details: THP-1
# T1 sequence (P40337 whole entry, looked up, one chain of several): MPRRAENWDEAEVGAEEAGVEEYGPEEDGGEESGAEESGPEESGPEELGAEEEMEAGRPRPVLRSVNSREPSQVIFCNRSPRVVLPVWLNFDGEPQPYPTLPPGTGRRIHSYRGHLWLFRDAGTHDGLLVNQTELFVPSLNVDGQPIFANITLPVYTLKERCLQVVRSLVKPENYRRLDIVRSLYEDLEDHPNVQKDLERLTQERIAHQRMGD
# [3] = biological target: T2, Interleukin-1 receptor-associated kinase 4 (Homo sapiens, UniProt Q9NWZ3); experiment: Inhibition of recombinant human full-length His-tagged IRAK4 expressed in baculovirus expression system using 5-FAM-IPTSPITTTYFFFKKK-COOH as substrate measured after 240 mins by mobility shift assay
# T2 sequence (Q9NWZ3 whole entry): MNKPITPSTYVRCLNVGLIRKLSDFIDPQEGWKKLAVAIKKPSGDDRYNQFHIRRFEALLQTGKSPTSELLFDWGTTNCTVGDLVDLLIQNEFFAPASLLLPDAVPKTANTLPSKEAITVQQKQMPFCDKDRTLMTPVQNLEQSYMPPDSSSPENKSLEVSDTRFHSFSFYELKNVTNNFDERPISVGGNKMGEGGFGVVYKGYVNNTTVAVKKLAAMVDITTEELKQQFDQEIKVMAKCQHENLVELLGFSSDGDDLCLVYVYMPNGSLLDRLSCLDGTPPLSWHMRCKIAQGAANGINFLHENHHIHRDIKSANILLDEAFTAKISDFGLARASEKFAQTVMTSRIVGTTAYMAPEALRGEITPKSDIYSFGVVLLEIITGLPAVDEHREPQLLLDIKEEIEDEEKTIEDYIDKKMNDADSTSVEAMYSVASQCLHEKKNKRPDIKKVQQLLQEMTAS
# [4] = biological target: T1, von Hippel-Lindau disease tumor suppressor/Interleukin-1 receptor-associated kinase 3 (Homo sapiens); experiment: Protac activity at VHL/IRAK3 in LPS-induced human THP1 cells assessed as induction of IRAK3 degradation at 10 uM by Western blot analysis relative to control; format: cell-based; details: THP-1
# [5] = biological target: T3, Interleukin-1 receptor-associated kinase 3 (Homo sapiens, UniProt Q9Y616); experiment: Inhibition of kinase tracer 236 binding to recombinant human full-length GST-tagged IRAK3 expressed in insect cells by Lanthascreen Eu kinase binding assay
# T3 sequence (Q9Y616 whole entry): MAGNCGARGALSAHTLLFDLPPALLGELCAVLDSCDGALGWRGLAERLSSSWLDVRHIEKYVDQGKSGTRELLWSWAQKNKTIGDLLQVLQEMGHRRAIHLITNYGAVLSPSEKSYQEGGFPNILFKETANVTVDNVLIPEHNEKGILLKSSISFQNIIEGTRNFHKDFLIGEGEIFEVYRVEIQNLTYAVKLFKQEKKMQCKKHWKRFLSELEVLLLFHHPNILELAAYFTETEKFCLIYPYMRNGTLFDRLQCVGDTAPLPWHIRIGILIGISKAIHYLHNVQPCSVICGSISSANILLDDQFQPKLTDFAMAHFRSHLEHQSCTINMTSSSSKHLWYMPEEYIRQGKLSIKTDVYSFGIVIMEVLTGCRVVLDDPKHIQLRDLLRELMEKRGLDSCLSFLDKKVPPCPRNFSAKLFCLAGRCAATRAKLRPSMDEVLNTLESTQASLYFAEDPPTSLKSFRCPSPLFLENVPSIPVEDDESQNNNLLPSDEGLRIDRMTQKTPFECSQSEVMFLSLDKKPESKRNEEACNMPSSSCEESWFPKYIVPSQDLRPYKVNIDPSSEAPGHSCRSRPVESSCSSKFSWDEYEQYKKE
# [6] = biological target: T4, Protein cereblon/Interleukin-1 receptor-associated kinase 3 (Homo sapiens, UniProt Q9Y616+Q96SW2); experiment: Protac activity at CRBN/IRAK3 in LPS-induced human THP1 cells assessed as induction of IRAK3 degradation at 1 uM by Western blot analysis relative to control; format: cell-based; details: THP-1
# Target sequence in this assay (Q96SW2 whole entry, looked up, one chain of several): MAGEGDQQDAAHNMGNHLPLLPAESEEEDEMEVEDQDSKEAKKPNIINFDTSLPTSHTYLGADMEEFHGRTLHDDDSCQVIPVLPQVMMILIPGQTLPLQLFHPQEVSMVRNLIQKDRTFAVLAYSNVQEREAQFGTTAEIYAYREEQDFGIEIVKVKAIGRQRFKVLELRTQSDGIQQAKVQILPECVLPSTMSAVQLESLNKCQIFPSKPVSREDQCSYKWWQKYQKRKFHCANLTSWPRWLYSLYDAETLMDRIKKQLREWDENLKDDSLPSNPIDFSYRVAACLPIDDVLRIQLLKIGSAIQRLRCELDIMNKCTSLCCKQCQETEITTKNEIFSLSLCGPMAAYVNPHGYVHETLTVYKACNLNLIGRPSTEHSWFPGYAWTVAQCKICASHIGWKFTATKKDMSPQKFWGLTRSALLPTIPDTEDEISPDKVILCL
# [7] = biological target: T4, Protein cereblon/Interleukin-1 receptor-associated kinase 3; experiment: Protac activity at CRBN/IRAK3 in LPS-induced human THP1 cells assessed as induction of IRAK3 degradation at 10 uM by Western blot analysis relative to control; format: cell-based; details: THP-1
# Target sequence in this assay (Q96SW2 whole entry, looked up, one chain of several): as above
# [8] = biological target: Interleukin-1 receptor-associated kinase 1 (Homo sapiens, UniProt P51617); experiment: Inhibition of recombinant human N-terminal GST-tagged IRAK1 (194 to 712 residues) expressed in baculovirus expression system using 5-FAM-KKKVSRSGLYRSPSMPENLNRPR-COOH as substrate measured after 240 mins by mobility shift assay
# Interleukin-1 receptor-associated kinase 1, sequence (P51617 whole entry, the tested form may be a part): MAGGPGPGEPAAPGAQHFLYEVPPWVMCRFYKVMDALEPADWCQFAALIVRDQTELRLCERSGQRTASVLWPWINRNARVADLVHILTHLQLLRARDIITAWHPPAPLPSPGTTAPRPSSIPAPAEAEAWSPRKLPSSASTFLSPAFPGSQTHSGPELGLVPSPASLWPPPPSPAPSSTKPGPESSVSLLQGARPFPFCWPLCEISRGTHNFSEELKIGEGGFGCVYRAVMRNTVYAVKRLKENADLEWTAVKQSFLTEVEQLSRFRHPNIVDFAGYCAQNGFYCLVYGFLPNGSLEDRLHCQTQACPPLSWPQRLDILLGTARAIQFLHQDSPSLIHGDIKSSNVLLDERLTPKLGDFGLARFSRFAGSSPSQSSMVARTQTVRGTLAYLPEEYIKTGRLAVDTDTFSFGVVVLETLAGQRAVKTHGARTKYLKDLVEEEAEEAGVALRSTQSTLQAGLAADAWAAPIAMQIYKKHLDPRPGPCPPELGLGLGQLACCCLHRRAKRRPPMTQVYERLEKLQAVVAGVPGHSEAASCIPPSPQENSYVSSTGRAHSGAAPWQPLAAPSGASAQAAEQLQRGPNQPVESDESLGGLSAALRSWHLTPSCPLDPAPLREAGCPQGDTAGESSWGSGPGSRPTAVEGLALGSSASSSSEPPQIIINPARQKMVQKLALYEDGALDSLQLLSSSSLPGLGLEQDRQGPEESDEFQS
# [9] = biological target: T4, Protein cereblon/Interleukin-1 receptor-associated kinase 3; experiment: Protac activity at CRBN/IRAK3 in LPS-induced human THP1 cells assessed as induction of IRAK3 degradation after 16 hrs by Western blot analysis relative to control; format: cell-based; details: THP-1
# Target sequence in this assay (Q96SW2 whole entry, looked up, one chain of several): as the sequence (Q96SW2 whole entry, looked up, one chain of several) above
# [10] = biological target: Protein cereblon (Homo sapiens, UniProt Q96SW2); experiment: Inhibition of CRBN (unknown origin)
# Protein cereblon, sequence (Q96SW2 whole entry): as the sequence (Q96SW2 whole entry, looked up, one chain of several) above
# [11] = biological target: T4, Protein cereblon/Interleukin-1 receptor-associated kinase 3; experiment: Protac activity at CRBN/IRAK3 in LPS-induced human THP1 cells assessed as induction of IRAK3 degradation after 16 hrs by Western blot analysis; format: cell-based; details: thp-1
# Target sequence in this assay (Q96SW2 whole entry, one chain of several): as the sequence (Q96SW2 whole entry, looked up, one chain of several) above
logD [1],Activity [2] [%],IC50 [3] [nM],Activity [4] [%],IC50 [5] [nM],Activity [6] [%],Activity [7] [%],IC50 [8] [nM],Emax [9] [%],IC50 [10] [nM],DC50 [11] [nM],SMILES
2.1,,> 1000,,21,42,34,,,,,CC(C)c1ccn2ncnc(N[C@H]3CC[C@@H](N4CCN(C(=O)CCC(=O)NCCOCCOCCOCCNc5cccc6c5C(=O)N(C5CCC(=O)NC5=O)C6=O)CC4)CC3)c12 (stereo partly specified)
2.1,,> 10000,,33,78,49,,,,,CC(C)c1ccn2ncnc(N[C@H]3CC[C@@H](N4CCN(C(=O)CCOCCOCCOCCOCCOCCNc5cccc6c5C(=O)N(C5CCC(=O)NC5=O)C6=O)CC4)CC3)c12 (stereo partly specified)
2.3,,4900,,10,17,13,,,,,CC(C)c1ccn2ncnc(N[C@H]3CC[C@@H](N4CCN(C(=O)CCC(=O)NCCOCCOCCNc5cccc6c5C(=O)N(C5CCC(=O)NC5=O)C6=O)CC4)CC3)c12 (stereo partly specified)
2.3,,7800,,34,24,21,,,,,CC(C)c1ccn2ncnc(N[C@H]3CC[C@@H](N4CCN(C(=O)CCOCCOCCOCCNc5cccc6c5C(=O)N(C5CCC(=O)NC5=O)C6=O)CC4)CC3)c12 (stereo partly specified)
2.2,,> 10000,,50,48,27,,,,,CC(C)c1ccn2ncnc(N[C@H]3CC[C@@H](N4CCN(C(=O)CCOCCOCCOCCOCCNc5cccc6c5C(=O)N(C5CCC(=O)NC5=O)C6=O)CC4)CC3)c12 (stereo partly specified)
2,,> 1000,,22,85,55,,,,,CC(C)c1ccn2ncnc(N[C@H]3CC[C@@H](N4CCN(C(=O)CCC(=O)NCCOCCOCCOCCOCCNc5cccc6c5C(=O)N(C5CCC(=O)NC5=O)C6=O)CC4)CC3)c12 (stereo partly specified)

# More lines, now with the values behind:
SMILES,logD [1],Activity [2] [%],IC50 [3] [nM],Activity [4] [%],IC50 [5] [nM],Activity [6] [%],Activity [7] [%],IC50 [8] [nM],Emax [9] [%],IC50 [10] [nM],DC50 [11] [nM]
Cc1ncsc1-c1ccc(CNC(=O)[C@@H]2C[C@@H](O)CN2C(=O)[C@@H](NC(=O)COCCOCCNC(=O)CCC(=O)N2CCN([C@H]3CC[C@@H](Nc4ncnn5ccc(C(C)C)c45)CC3)CC2)C(C)(C)C)cc1,3.3,0,> 10000,20,24,,,,,,
Cc1ncsc1-c1ccc(CNC(=O)[C@@H]2C[C@@H](O)CN2C(=O)[C@@H](NC(=O)CCCCCCNC(=O)CCC(=O)N2CCN([C@H]3CC[C@@H](Nc4ncnn5ccc(C(C)C)c45)CC3)CC2)C(C)(C)C)cc1,> 3,0,> 1000,0,6,,,,,,
CC(C)c1ccn2ncnc(N[C@H]3CC[C@@H](N4CCN(C(=O)CCC(=O)NCCCCCCNc5cccc6c5C(=O)N(C5CCC(=O)NC5=O)C6=O)CC4)CC3)c12 (stereo partly specified),3.7,,2600,,21,0,0,,,,
CC(C)c1ccn2ncnc(N[C@H]3CC[C@@H](N4CCN(C(=O)CCC(=O)N5CCC(CN6CCN(c7ccc8c(c7)C(=O)N(C7CCC(=O)NC7=O)C8=O)CC6)CC5)CC4)CC3)c12 (stereo partly specified),3.1,,5600,,6,,,5600,74,1200,52
CC(C)c1ccn2ncnc(N[C@H]3CC[C@@H](N4CCN(C(=O)CCC(=O)NCCCCNc5cccc6c5C(=O)N(C5CCC(=O)NC5=O)C6=O)CC4)CC3)c12 (stereo partly specified),2.9,,> 1000,,13,0,0,,,,
Cc1ncsc1-c1ccc(CNC(=O)[C@@H]2C[C@@H](O)CN2C(=O)[C@@H](NC(=O)COCCOCCOCCOCCNC(=O)CCC(=O)N2CCN([C@H]3CC[C@@H](Nc4ncnn5ccc(C(C)C)c45)CC3)CC2)C(C)(C)C)cc1,3,0,> 1000,0,19,,,,,,
CC(=O)N1CCN([C@H]2CC[C@H](Nc3ncnn4ccc(C(C)C)c34)CC2)CC1,,,,,31,,,,,,
Cc1ncsc1-c1ccc(CNC(=O)[C@@H]2C[C@@H](O)CN2C(=O)[C@@H](NC(=O)COCCOCCOCCOCCOCCOCC(=O)N2CCN([C@H]3CC[C@@H](Nc4ncnn5ccc(C(C)C)c45)CC3)CC2)C(C)(C)C)cc1,2.8,20,> 10000,43,33,,,,,,
Cc1ncsc1-c1ccc(CNC(=O)[C@@H]2C[C@@H](O)CN2C(=O)[C@@H](NC(=O)COCCOCCOCCOCC(=O)N2CCN([C@H]3CC[C@@H](Nc4ncnn5ccc(C(C)C)c45)CC3)CC2)C(C)(C)C)cc1,3.2,25,> 10000,62,21,,,,,,
Cc1ncsc1-c1ccc(CNC(=O)[C@@H]2C[C@@H](O)CN2C(=O)[C@@H](NC(=O)COCCOCCOCCNC(=O)CCC(=O)N2CCN([C@H]3CC[C@@H](Nc4ncnn5ccc(C(C)C)c45)CC3)CC2)C(C)(C)C)cc1,3.1,0,> 1000,0,25,,,,,,
Cc1ncsc1-c1ccc(CNC(=O)[C@@H]2C[C@@H](O)CN2C(=O)[C@@H](NC(=O)COCCOCCOCCOCCOCC(=O)N2CCN([C@H]3CC[C@@H](Nc4ncnn5ccc(C(C)C)c45)CC3)CC2)C(C)(C)C)cc1,,21,,67,51,,,,,,
Cc1ncsc1-c1ccc(CNC(=O)[C@@H]2C[C@@H](O)CN2C(=O)[C@@H](NC(=O)CCCNC(=O)CCC(=O)N2CCN([C@H]3CC[C@@H](Nc4ncnn5ccc(C(C)C)c45)CC3)CC2)C(C)(C)C)cc1,3.7,0,> 1000,0,15,,,,,,
